From US20260199365A1, “BIS-SULFONAMIDE SHIP1 ACTIVATORS” (The Research Foundation for the State University of New York, priority 2022, published 2026) come the findings set out here.

“Also recorded” adds a separate entry of the source.

This assay deals with T1, recombinant human truncated SHIP1 (tSHIP1) (Homo sapiens, UniProt Q92835).
T1 construct: tSHIP1 (SHIP1, residues 397-864) was amplified from pET24TEV-tSHIP1; His tag; made in house; host or cells: E. coli BL21
T1 sequence (Q92835 397-864): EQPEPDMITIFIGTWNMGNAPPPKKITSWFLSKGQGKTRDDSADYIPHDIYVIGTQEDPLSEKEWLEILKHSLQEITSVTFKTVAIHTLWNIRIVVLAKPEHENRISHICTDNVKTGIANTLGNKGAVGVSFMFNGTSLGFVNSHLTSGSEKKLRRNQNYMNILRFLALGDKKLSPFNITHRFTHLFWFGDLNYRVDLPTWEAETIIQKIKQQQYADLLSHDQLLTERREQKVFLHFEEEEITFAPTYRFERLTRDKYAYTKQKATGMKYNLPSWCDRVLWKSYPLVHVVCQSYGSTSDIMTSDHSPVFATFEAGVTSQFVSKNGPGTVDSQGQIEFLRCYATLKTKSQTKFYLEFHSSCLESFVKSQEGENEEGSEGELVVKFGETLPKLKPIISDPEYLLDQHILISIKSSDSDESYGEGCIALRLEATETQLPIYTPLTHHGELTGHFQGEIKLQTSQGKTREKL
Briefly: Malachite Green Phosphatase Release Assay (SHIP1 phosphatase activity). To be noted: for Phosphatase activity in the Malachite Green Assay, analog concentration 125 μM: 125 μM analog; for Phosphatase activity in the Malachite Green Assay, analog concentration 125 μM / Phosphatase activity in the Malachite Green Assay, analog concentration 250 μM / Phosphatase activity in the Malachite Green Assay, analog concentration 500 μM: 100 μM PI(3,4,5)P3-diC8 substrate, normalized to vehicle control (DMSO) = 100%; for Phosphatase activity in the Malachite Green Assay, analog concentration 250 μM: 250 μM analog; for Phosphatase activity in the Malachite Green Assay, analog concentration 500 μM: 500 μM analog, >100% activation, <100% inhibition; for SHIP1 activator activity in the malachite green assay: discussion of Table 4 (125-500 μM). The class given is biochemical. How it is done:
^aPhosphatase activity for SHIP1 and SHIP2 enzyme as determined in the malachite green assay. Results were normalized to the phosphatase activity level from vehicle control (DMSO) used as 100% activity. Values >100% are attributed to activation, while values <100% show inhibition of the enzyme compared to the control. The assay was performed at the indicated concentration of the small molecule with 100 μM PI(3,4,5)P3-diC8 as the substrate. ^bnd=not determined, compound 23 was insoluble.
Cloning and expression of tSHIP1 of truncated human SHIP1 protein (tSHIP1) from human whole blood mRNA have been previously described (see Brooks R, Iyer, S., Akada, H., Neelam, S., Russo, C. M., Chisholm, J. D., and Kerr W. G. Coordinate Expansion of Murine Hematopoietic and Mesenchymal Stem Cell Compartments by SHIPi Stem Cells 2015; 33:848). Briefly, tSHIP1 (SHIP1, residues 397-864) was amplified from pET24TEV-tSHIP1. Plasmids were extracted with Midi Prep (Qiagen) and sequences were verified by sequencing of the entire expression regions. The plasmids were then transformed into E. coli BL21 (New England Biolabs). Fresh colonies were amplified in 1 L LB at 37° C., shaking at 250 rpm until OD600 nm reached 0.6. Protein expression was induced with […] IPTG and incubation was continued at 16° C., shaking at 250 rpm for 16 h. Following centrifugation, bacteria pellets were stored overnight at −20° C. Protein was extracted form bacterial cell pellet using BugBuster HT (Millipore), according to manufacturer's recommendations. The His-tagged protein was purified by FPLC using HisTrapHP 5 ml column (Cytiva Life Sciences) at a 5 ml/min flow rate and 10 mM-1M imidazole gradient in Buffer A (20 mM Tris pH 8.0, 300 mM NaCl, 10 mM imidazole, 5 mM β-mercaptoethanol). Fractions containing active protein by Malachite Green Phosphatase Release Assay (Echelon, see below) were pooled, concentrated and buffer exchanged to reduce imidazole concentration by centrifugation using Pierce Protein Concentrators 30KMWCO PES, (ThermoFisher Scientific). Protein was aliquoted and stored at −80° C. in a mixture of Buffer A (without β-ME) and 50% glycerol.
Malachite Green Phosphatase Release Assays: Malachite Green Phosphatase Release Assays (Echelon Biosciences) were performed with recombinant human truncated SHIP1 (tSHIP1) (Brooks, 2015) and SHIP2 (Echelon Biosciences). Briefly, serial dilutions of the compounds dissolved in DMSO were added to the recombinant enzymes diluted in reaction buffer Rx (50 mM Hepes pH 7.4, 150 mM NaCl, 1 mM MgCl2, 0.25 mM EDTA) in triplicate reactions in 96-well plates. Reactions were incubated for 2 min at room temperature. […] of 1 mM Phosphatidylinositol 3,4,5-trisphosphate diC8 (PI(3,4,5)P3diC8) (Echelon Biosciences) was added to each reaction to a final concentration of 100 μM in a final volume of […]. Following 20 min incubation at 37° C., 100 μL of Malachite Green Solution (Echelon Biosciences) was added to each well and plates were incubated at room temperature in the dark for 15 min. Plates were then read at 620 nm on a plate reader (Synergy 2, BioTek).

For `O=C(Nc1ccc(S(=O)(=O)N2CCCCC2)cc1)[C@@H]1CCCN1S(=O)(=O)c1ccc(C(F)(F)F)cc1` (stereo in doubt) [Compound K423], the “Malachite (SHIP1), 125 μM” value (bis-sulfonamide hybrids, 125 μM) was determined as 99%. Also, the “Malachite (SHIP1), 250 μM” value (bis-sulfonamide hybrids, 250 μM) was 109%. Under “bis-sulfonamide hybrids, 500 μM”, the “Malachite (SHIP1), 500 μM” value was 136%.
Regarding `Cc1sc(S(=O)(=O)N2CC[S+]([O-])CC2)cc1NC(=O)CNS(=O)(=O)c1ccc(F)cc1` [Compound K377], the “Phosphatase activity in the Malachite Green Assay, analog concentration 125 μM” value is listed as 98%; the “Phosphatase activity in the Malachite Green Assay, analog concentration 250 μM” value was 89%; the “Phosphatase activity in the Malachite Green Assay, analog concentration 500 μM” value is listed as 80%. Moreover, the “SHIP1 activator activity in the malachite green assay” value (“SHIP1 activator activity” below) (listed as 22) is recorded as “no activity as a SHIP activator; also recorded: some inhibition of SHIP1”.
For `Cc1sc(S(=O)(=O)N2CCSCC2)cc1NC(=O)CN1C(=O)c2ccccc2S1(=O)=O` [Compound K402, N-[2-methyl-5-(thiomorpholine-4-sulfonyl)thiophen-3-yl]-2-(1,1,3-trioxo-2,3-dihydro-1-benzothiazol-2-yl) acetamide], the “Phosphatase activity in the Malachite Green Assay, analog concentration 125 μM” value was found to be 109%; the “Phosphatase activity in the Malachite Green Assay, analog concentration 250 μM” value came out at 131%; the “Phosphatase activity in the Malachite Green Assay, analog concentration 500 μM” value was 161%; the “SHIP1 activator activity” value is on record as “nearly as potent as 69”.
`Cc1sc(S(=O)(=O)N2CCSCC2)cc1NC(=O)[C@H](Cc1ccccc1)NS(=O)(=O)c1ccc(F)cc1` [Compound K396, (2S)-2-(4-Fluorobenzenesulfonamido)-N-[2-methyl-5-(thiomorpholine-4-sulfonyl)thiophen-3-yl]-3-phenylpropanamide]: the “Phosphatase activity in the Malachite Green Assay, analog concentration 125 μM” value is 71%; the “Phosphatase activity in the Malachite Green Assay, analog concentration 250 μM” value amounted to 74%; the “Phosphatase activity in the Malachite Green Assay, analog concentration 500 μM” value is 130%.
With `Cc1sc(S(=O)(=O)N2CCSCC2)cc1NC(=O)CN` [Compound K378, 2-Aminotrifluoroacetate-N-[2-methyl-5-(thiomorpholine-4-sulfonyl)thiophene-3-yl]acetamide], the “Phosphatase activity in the Malachite Green Assay, analog concentration 125 μM” value came out at 103%; the “Phosphatase activity in the Malachite Green Assay, analog concentration 250 μM” value is 104%; the “Phosphatase activity in the Malachite Green Assay, analog concentration 500 μM” value was determined as 107%; the “SHIP1 activator activity” value was “reduced effect on SHIP activation”.
Regarding `Cc1sc(S(=O)(=O)N2CCOCC2)cc1NC(=O)CNS(=O)(=O)c1ccc(F)cc1` [Compound K367, 2-(4-Fluorobenzenesulfonamido)-N-[2-methyl-5-(morpholine-4-sulfonyl)thiophen-3-yl]acetamide], the “Phosphatase activity in the Malachite Green Assay, analog concentration 250 μM” value is reported as 93%; the “Phosphatase activity in the Malachite Green Assay, analog concentration 500 μM” value came to 94%; the “SHIP1 activator activity” value was “loss of activity”.
For the compound `Cc1sc(S(=O)(=O)N2CCSCC2)cc1NC(=O)CNS(=O)(=O)c1ccc(I)cc1` [Compound K374, 2-(4-Iodobenzenesulfonamido)-N-[2-methyl-5-(thiomorpholine-4-sulfonyl)thiophen-3-yl]acetamide], the “Phosphatase activity in the Malachite Green Assay, analog concentration 125 μM” value is given as 99%; the “Phosphatase activity in the Malachite Green Assay, analog concentration 250 μM” value turned out to be 83%; the “Phosphatase activity in the Malachite Green Assay, analog concentration 500 μM” value was determined as 119%; the “SHIP1 activator activity” value is recorded as “loss of bioactivity”.
Turning to `Cc1sc(S(=O)(=O)N2CCSCC2)cc1NC(=O)CNS(=O)(=O)c1ccc([N+](=O)[O-])cc1` [Compound K375, N-[2-methyl-5-(thiomorpholine-4-sulfonyl)thiophen-3-yl]-2-(4-nitrobenzenesulfonamido) acetamide], the “Phosphatase activity in the Malachite Green Assay, analog concentration 125 μM” value stood at 108%; the “Phosphatase activity in the Malachite Green Assay, analog concentration 250 μM” value is 115%; the “Phosphatase activity in the Malachite Green Assay, analog concentration 500 μM” value worked out at 150%; the “SHIP1 activator activity” value is on record as “increase in the activity”.
`CCN(CC)S(=O)(=O)c1cc(NC(=O)CNS(=O)(=O)c2ccc(F)cc2)c(C)s1` [Compound K383, N-[5-(Diethylsulfamoyl)-2-methylthiophen-3-yl]-2-(4-fluorobenzenesulfonamido) acetamide]: the “Phosphatase activity in the Malachite Green Assay, analog concentration 125 μM” value turned out to be 101%; the “Phosphatase activity in the Malachite Green Assay, analog concentration 250 μM” value is given as 93%; the “Phosphatase activity in the Malachite Green Assay, analog concentration 500 μM” value stood at 109%.
On to `Cc1sc(S(=O)(=O)N2CCSCC2)cc1NC(=O)[C@H](C)NS(=O)(=O)c1ccc(F)cc1` [Compound K389, (2S)-2-(4-Fluorobenzenesulfonamido)-N-[2-methyl-5-(thiomorpholine-4-sulfonyl)thiophen-3-yl]propanamide], for which the “Phosphatase activity in the Malachite Green Assay, analog concentration 125 μM” value was 89%; the “Phosphatase activity in the Malachite Green Assay, analog concentration 250 μM” value amounted to 118%; the “Phosphatase activity in the Malachite Green Assay, analog concentration 500 μM” value is 132%.
With `O=C(CNS(=O)(=O)c1ccc(F)cc1)Nc1cc(S(=O)(=O)N2CCSCC2)sc1Cl` [Compound K401, N-[2-Chloro-5-(thiomorpholine-4-sulfonyl)thiophen-3-yl]-2-(4-fluorobenzenesulfonamido) acetamide], the “Phosphatase activity in the Malachite Green Assay, analog concentration 125 μM” value is reported as 102%; the “Phosphatase activity in the Malachite Green Assay, analog concentration 250 μM” value was 109%; the “Phosphatase activity in the Malachite Green Assay, analog concentration 500 μM” value was found to be 125%; the “SHIP1 activator activity” value is recorded as “nearly equipotent as the parent K306 structure”.
On the same counts, the results for `O=C(CNS(=O)(=O)c1ccc(F)cc1)Nc1ccc(S(=O)(=O)N2CCSCC2)cc1` [Compound K399, 2-(4-Fluorobenzenesulfonamido)-N-[4-(thiomorpholine-4-sulfonyl)phenyl] acetamide] are 112%, 105%, 130% and “Activity was maintained”.
In the case of `Cc1sc(S(=O)(=O)N2CCSCC2)cc1NC(=O)CNS(=O)(=O)c1ccccc1[N+](=O)[O-]` [Compound K391, N-[2-Methyl-5-(thiomorpholine-4-sulfonyl)thiophen-3-yl]-2-(2-nitrobenzenesulfonamido) acetamide], the “Phosphatase activity in the Malachite Green Assay, analog concentration 125 μM” value is given as 117%; the “Phosphatase activity in the Malachite Green Assay, analog concentration 250 μM” value amounted to 133%; the “Phosphatase activity in the Malachite Green Assay, analog concentration 500 μM” value worked out at 163%; the “SHIP1 activator activity” value is “quite active”.
